Source: US9545409B2 (priority 2012, dated 2017)

Columns and labels:
central eye artery = experiment: blood circulation in the central eye artery under model ischemia-reperfusion; assay type: in vivo; settings: rats, intravenous, doses of 3, 5, 10, 20 and 100 mg/kg
NMDA-receptors = experiment: blocking/unblocking of NMDA-receptors; settings: stated property, no test described
[1] = test system: ischemia-reperfusion eye model
[2] = rats, parenteral, within 96 hours of ischemia, doses of 3, 5, 10, 20 and 100 mg/kg

## OC(COCCC12CC3CC(CC(C3)C1)C2)CN1CCOCC1 (stereo not shown) [1-adamantylethyloxy-3-morpholino-2-propanol]
Central eye artery
  blood circulation in the central eye artery: stimulates
NMDA-receptors
  blocking/unblocking NMDA-receptors: fast blocking/unblocking
[1]; [2]
  disturbed indicators of acid-alkali balance, oxidative stress and energy metabolism in the retina: promoted the normalization
  number of apoptotic and necrotic cells in eye posterior part: reduces
  perivascular edema in the retina and optic nerve: attenuated
  retinal manifestations of endothelial dysfunction and nitrosating stress: promoted the reduction
[1]; summary of the studies, composition concentration range 3-100 mg/ml
  neuroprotective properties under ischemic-hypoxic injury of retina and optic nerve: expressed neuroprotective properties
